What was measured:
[1] = target: T1, Protein kinase C epsilon type (Homo sapiens, UniProt Q02156); experiment: Inhibition of human Protein kinase C epsilon
T1 sequence (Q02156 whole entry): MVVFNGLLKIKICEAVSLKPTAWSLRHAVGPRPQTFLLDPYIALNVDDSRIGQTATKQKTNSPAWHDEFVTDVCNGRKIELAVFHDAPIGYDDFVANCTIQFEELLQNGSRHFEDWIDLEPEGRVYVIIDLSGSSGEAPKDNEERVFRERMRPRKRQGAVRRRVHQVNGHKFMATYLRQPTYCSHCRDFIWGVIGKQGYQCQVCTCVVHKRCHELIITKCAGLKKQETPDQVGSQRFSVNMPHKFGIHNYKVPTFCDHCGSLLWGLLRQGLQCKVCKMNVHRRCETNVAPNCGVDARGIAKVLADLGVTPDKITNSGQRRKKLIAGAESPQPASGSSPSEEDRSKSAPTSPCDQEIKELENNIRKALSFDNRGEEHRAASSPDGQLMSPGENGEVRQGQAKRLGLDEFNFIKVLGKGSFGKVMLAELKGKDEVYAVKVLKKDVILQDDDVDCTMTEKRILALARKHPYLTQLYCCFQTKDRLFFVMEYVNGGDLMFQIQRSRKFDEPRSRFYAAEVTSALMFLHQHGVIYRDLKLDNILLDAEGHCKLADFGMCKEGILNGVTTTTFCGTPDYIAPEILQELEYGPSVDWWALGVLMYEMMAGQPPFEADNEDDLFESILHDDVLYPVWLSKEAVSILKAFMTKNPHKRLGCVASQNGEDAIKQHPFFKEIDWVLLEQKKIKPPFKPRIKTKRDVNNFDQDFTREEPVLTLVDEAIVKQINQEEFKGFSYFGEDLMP

[2] = target: Protein kinase C alpha type (Homo sapiens, UniProt P17252); experiment: Inhibition of human Protein kinase C alpha
[3] = target: T2, Protein kinase C zeta type (Homo sapiens, UniProt Q05513); experiment: Inhibition of Protein kinase C zeta
T2 sequence (Q05513 whole entry): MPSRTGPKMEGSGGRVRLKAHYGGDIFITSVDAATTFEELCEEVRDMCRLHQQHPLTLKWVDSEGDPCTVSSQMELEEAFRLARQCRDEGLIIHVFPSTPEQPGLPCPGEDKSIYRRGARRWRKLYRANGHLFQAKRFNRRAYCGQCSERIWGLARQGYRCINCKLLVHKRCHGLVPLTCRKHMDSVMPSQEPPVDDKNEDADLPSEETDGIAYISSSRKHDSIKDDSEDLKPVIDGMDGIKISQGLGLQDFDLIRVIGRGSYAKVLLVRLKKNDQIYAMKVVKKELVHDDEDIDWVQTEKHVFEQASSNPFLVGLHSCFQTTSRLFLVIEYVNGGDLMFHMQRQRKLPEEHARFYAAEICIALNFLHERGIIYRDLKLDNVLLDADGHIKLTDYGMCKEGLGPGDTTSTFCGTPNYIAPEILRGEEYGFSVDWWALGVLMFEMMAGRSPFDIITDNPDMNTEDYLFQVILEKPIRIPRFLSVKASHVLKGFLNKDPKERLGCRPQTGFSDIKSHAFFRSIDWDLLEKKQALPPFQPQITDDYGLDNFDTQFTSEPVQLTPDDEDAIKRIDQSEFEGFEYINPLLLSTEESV

[4] = target: T3, Protein kinase C beta type (Homo sapiens, UniProt P05771); experiment: Inhibition of human Protein kinase C beta 2
T3 sequence (P05771 whole entry): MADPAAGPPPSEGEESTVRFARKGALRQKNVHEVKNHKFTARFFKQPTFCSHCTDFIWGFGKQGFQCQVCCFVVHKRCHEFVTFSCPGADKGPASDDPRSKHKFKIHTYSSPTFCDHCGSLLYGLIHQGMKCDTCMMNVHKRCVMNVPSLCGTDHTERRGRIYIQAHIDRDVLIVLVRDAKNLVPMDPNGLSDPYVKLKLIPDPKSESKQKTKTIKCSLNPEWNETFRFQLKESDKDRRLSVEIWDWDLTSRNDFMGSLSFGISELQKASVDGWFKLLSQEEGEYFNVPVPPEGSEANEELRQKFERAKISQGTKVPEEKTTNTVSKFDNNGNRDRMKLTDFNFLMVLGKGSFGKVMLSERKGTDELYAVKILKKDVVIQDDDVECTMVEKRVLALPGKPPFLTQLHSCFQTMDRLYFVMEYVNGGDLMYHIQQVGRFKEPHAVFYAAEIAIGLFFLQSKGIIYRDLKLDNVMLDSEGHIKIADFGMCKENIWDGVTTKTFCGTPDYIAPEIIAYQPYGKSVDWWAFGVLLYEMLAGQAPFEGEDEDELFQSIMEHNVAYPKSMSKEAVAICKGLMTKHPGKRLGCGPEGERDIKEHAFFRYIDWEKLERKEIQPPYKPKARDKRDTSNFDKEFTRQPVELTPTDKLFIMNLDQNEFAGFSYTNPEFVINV

[5] = target: Protein kinase C gamma type (Homo sapiens, UniProt P05129); experiment: Inhibition of human Protein kinase C gamma
[6] = target: Protein kinase C eta type (Homo sapiens, UniProt P24723); experiment: Inhibition of human protein kinase C eta
Chain of Protein kinase C eta type (P24723 whole entry): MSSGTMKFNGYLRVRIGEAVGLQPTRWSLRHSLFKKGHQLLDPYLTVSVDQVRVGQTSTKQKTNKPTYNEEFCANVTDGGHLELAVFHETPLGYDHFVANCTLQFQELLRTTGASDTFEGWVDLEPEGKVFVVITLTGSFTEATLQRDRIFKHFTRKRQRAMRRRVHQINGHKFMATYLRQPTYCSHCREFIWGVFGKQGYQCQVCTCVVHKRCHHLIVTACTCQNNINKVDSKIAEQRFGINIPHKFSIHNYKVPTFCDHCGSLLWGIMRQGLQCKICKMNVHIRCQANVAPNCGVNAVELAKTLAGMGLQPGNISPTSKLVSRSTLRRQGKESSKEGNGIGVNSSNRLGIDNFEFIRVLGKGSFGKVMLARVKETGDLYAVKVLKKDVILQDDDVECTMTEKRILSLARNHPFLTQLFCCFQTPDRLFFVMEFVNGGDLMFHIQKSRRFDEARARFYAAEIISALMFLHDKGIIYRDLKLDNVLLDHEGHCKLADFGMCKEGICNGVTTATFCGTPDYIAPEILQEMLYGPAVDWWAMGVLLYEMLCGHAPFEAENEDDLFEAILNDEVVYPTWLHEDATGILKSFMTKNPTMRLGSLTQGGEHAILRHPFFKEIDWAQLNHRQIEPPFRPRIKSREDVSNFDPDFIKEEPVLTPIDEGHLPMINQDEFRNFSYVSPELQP

[7] = target: Protein kinase C delta type (Homo sapiens, UniProt Q05655); experiment: Inhibition of human Protein kinase C delta
Chain of Protein kinase C delta type (Q05655 whole entry): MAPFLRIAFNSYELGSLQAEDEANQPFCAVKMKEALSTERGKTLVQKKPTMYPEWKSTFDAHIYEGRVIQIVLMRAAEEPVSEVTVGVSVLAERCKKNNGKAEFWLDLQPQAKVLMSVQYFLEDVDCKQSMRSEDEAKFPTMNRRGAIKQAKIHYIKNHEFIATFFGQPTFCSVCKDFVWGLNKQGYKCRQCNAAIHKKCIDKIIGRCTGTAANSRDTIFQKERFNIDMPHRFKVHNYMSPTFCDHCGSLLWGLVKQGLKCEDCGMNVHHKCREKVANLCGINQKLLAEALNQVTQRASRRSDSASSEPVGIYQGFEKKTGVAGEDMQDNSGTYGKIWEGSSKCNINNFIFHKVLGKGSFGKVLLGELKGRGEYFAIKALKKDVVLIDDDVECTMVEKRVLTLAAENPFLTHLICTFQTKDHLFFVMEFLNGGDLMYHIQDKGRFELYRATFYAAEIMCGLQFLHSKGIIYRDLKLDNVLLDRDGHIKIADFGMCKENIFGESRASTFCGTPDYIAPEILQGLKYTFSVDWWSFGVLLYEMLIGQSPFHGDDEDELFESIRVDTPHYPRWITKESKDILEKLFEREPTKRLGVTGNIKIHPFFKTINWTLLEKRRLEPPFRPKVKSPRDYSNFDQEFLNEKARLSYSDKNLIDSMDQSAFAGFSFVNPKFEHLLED

[8] = target: T3, Protein kinase C beta type; experiment: Inhibition of human Protein kinase C beta 1

For `O=C(N[C@H]1COCCC[C@H]1OC(=O)c1cc(O)c(C(=O)c2c(O)cccc2C(=O)O)c(O)c1)c1ccc(O)cc1`, the IC50 [1] was 16 µM, the IC50 [2] was 6.7 µM and the IC50 [3] was > 150 µM. The IC50 [4] was 3300 nM, the IC50 [5] was 1000 nM and the IC50 [6] was 10 nM. The IC50 [7] was 90 nM and the IC50 [8] was 2500 nM.

`O=C(N[C@H]1CCCCC[C@H]1OC(=O)c1cc(O)c(C(=O)c2c(O)cccc2C(=O)O)c(O)c1)c1ccc(O)cc1` was tested, and the IC50 [1] was 0.28 µM, the IC50 [2] was 0.27 µM and the IC50 [3] was > 150 µM. It also gave an IC50 [4] of 430 nM, an IC50 [5] of 60 nM and an IC50 [6] of 60 nM. The IC50 [7] was 90 nM and the IC50 [8] was 220 nM.

For `O=C(N[C@H]1CSCCC[C@H]1OC(=O)c1cc(O)c(C(=O)c2c(O)cccc2C(=O)O)c(O)c1)c1ccc(O)cc1`, the IC50 [1] was 5.9 µM, the IC50 [2] was 3.3 µM and the IC50 [4] was 2400 nM. The IC50 [5] was 1000 nM, the IC50 [6] was 100 nM and the IC50 [7] was 90 nM. The IC50 [8] was 3800 nM.

`O=C(N[C@H]1CNCCC[C@H]1OC(=O)c1cc(O)c(C(=O)c2c(O)cccc2C(=O)O)c(O)c1)c1ccc(O)cc1` (racemic) gave an IC50 [2] of 0.074 µM, an IC50 [3] of 3.5 µM and an IC50 [4] of 44 nM. The IC50 [5] was 34 nM, the IC50 [6] was 22 nM and the IC50 [7] was 32 nM. For the same molecule, the IC50 [8] was 32 nM.

In the case of `O=C(N[C@H]1CS(=O)(=O)CCC[C@H]1OC(=O)c1cc(O)c(C(=O)c2c(O)cccc2C(=O)O)c(O)c1)c1ccc(O)cc1`, the IC50 [1] is reported as 45 µM, the IC50 [2] is reported as 9.6 µM and the IC50 [3] is reported as > 150 µM. The IC50 [4] was 3600 nM, the IC50 [5] was 4300 nM and the IC50 [6] was 830 nM. For the same molecule, the IC50 [7] was 4000 nM and the IC50 [8] was 5200 nM.

Source: ChEMBL document CHEMBL1128826, “Heteroatom effect in the PKC inhibitory activities of perhydroazepine analogs of balanol” (Bioorg Med Chem Lett, 1995)
